Molecules are shown by their SMILES. Where two headings read alike, the source gives them in different places.

The source of these data is US20200165194A1, “ADDITIVE COMPOSITION FOR CULTURE MEDIUM, ADDITIVE COMPOUND FOR CULTURE MEDIUM, AND METHOD FOR CULTURE OF CELLS OR TISSUE USING SAME” (NISSAN CHEMICAL CORPORATION, priority 2017, published 2020).

Series [1] concerns Human umbilical vein endothelial cells. In words: Vascular endothelial cell, 3D culture, ATP assay (Experimental Example 14). The series is classed as cell-based. The settings on record: human umbilical vein endothelial cells under three-dimensional conditions. How it is done:
Human umbilical vein endothelial cells (manufactured by PromoCell) were precultured in Endothelial Cell proliferation Medium (manufactured by PromoCell) medium (single layer culture). The above-mentioned cells in the logarithmic growth phase were washed with PBS, DetachKit (manufactured by PromoCell) was added, and adherent cells were detached by incubating at 37° C. for 3 min. The medium was added and the mixture was centrifuged and resuspended in the same medium.
The aforementioned cells were suspended in respective deacylated gellan gum-containing or not containing media (deacylated gellan gum concentration was 0.015 w/v %), and seeded in a 96 well low attachment U-bottom plate (manufactured by Corning, #4520, deacylated gellan gum-free medium), or a low attachment flat bottom plate (manufactured by Corning, #3474, deacylated gellan gum-containing medium) at a cell concentration of 700-2000 cells/90 μL/well (all 3D culture). […] The amount of each compound solution to be added was 10 μL/well. As a control, a DMSO solution dissolved in a medium was added (DMSO final concentration 0.1%).

For series [2], the system named is plural animal cell lines. In words: Animal cell lines, summary over the cell lines (Experimental Example 15). It is filed as cell-based. The settings on record: animal cell lines under three-dimensional conditions. An excerpt:
(§1) Various animal cell lines were precultured (single layer culture) as follows in respective media. Chinese hamster ovary-derived cell line CHO-K1 (manufactured by DS PHARMA BIO MEDICAL, 10% fetal bovine serum (FBS, manufactured by Corning)-containing Ham's F-12 medium (manufactured by Fujifilm Wako Pure Chemical Corporation)), Cercopithecus aethiops kidney epithelium-derived cell line Vero (purchased from JCRB cell bank, 5% FBS-containing Medium 199 medium (manufactured by Life Technologies)). The above-mentioned cells in the logarithmic growth phase were washed with PBS, a 0.25 w/v % trypsin-1 mmol/L EDTA (ethylenediaminetetraacetic acid) solution (manufactured by Fujifilm Wako Pure Chemical Corporation) was added, and adherent cells were detached by incubating at 37° C. for 3 min. Each medium was added and the mixture was centrifuged and resuspended in the same medium.
(§2) The aforementioned various animal cells were suspended in respective deacylated gellan gum-containing or not containing media (deacylated gellan gum concentration was 0.02 w/v % in Ham's F-12 medium, 0.015 w/v % in Medium 199 medium), and seeded in a 96 well low attachment U-bottom plate (manufactured by Corning, #4520, deacylated gellan gum-free medium), or a low attachment flat bottom plate (manufactured by Corning, #3474, deacylated gellan gum-containing medium) at a cell concentration of 700-2000 cells/90 μL/well (all 3D culture). […] The amount of each compound solution to be added was […]. As a control, a DMSO solution dissolved in a medium was added (DMSO final concentration 0.1%). […] When compared with the compound non-addition (control), one showing a value of not more than 119% as -, one showing a value of not less than 120% as ◯, and one showing a value of not less than 150% as ⊚ are shown in the twenty-third table and the twenty-fourth table.

In series [3] the test system is Chinese hamster ovary-derived cell line CHO-K1. In words: Animal cell lines, 3D culture, ATP assay (Experimental Example 15). It is filed as cell-based. The settings on record: CHO-K1, 4 days; for number of viable cells (RLU), relative value to control (100%): low attachment flat bottom plate (deacylated gellan gum-containing medium).
Excerpt: as §1, §2

For series [4], the system named is Cercopithecus aethiops kidney epithelium-derived cell line Vero. The series is described as above. The settings on record: 4 days. The series is classed as cell-based.
Excerpt: as §1, §2

Series [5] deals with human ovarian cancer cell line SKOV3. In words: Action on SKOV3 cell-2: 3D (deacylated gellan gum) and 2D culture, EGF medium, ATP assay (Experimental Example 3). The settings on record: for viability at 1 µM / viability at 5 µM / viability at 10 µM / viability at 20 µM: Homo sapiens, SK-OV-3, 96 h, 4 days, compound non-addition = 100%.
Series [6] concerns Bone marrow-derived human mesenchymal stem cells (BM-hMSC). In words: Human mesenchymal stem cell-2: 3D, EZSPHERE and 2D culture, ATP assay (Experimental Example 10). The series is classed as cell-based. The settings on record: for viability at 1 µM / viability at 5 µM / viability at 10 µM / viability at 20 µM: Homo sapiens, Mesenchymal stem cells, 96 h, BM-hMSC, 4 days, non-addition = 100%, read-out: relative value of RLU (number of viable cells). How it is done:
Bone marrow-derived human mesenchymal stem cells (BM-hMSC, manufactured by PromoCell) were precultured by a single layer culture method (2D) using a mesenchymal stem cell proliferation medium (manufactured by PromoCell). In three-dimensional culture method (3D), hMSC was suspended in a medium composition added with deacylated gellan gum, and seeded in a […] flat bottom Ultr-low Attachment surface plate (manufactured by Corning Incorporated, #3474) at 6000 cells/90 μL/well. In the three-dimensional culture method using EZSPHERE (EZSPHERE), hMSC was suspended in a deacylated gellan gum-free medium composition, and seeded in a 96-well EZSPHERE plate (manufactured by AGC TECHNO GLASS CO., LTD., #4860-900) at 2000 cells/90 μL/well. In 2D, hMSC was suspended in a deacylated gellan gum-free medium composition, and seeded in a 96-well flat bottom plate (manufactured by Corning Incorporated, #3585) at 2000 cells/90 μL/well. […] As a control, DMSO was added at a final concentration of 0.1%.

Setting [7] is: low attachment U-bottom plate, 5 μM.
[8] abbreviates: low attachment U-bottom plate, 10 μM.
The mark [9] stands for this setting: low attachment flat bottom plate (deacylated gellan gum-containing medium), 5 μM.
Setting [10] is: low attachment flat bottom plate (deacylated gellan gum-containing medium), 10 μM.
Where [11] appears, read: read-out: relative value of RLU (number of viable cells), 2D single layer culture.
Where [12] appears, read: read-out: relative value of RLU (number of viable cells), 3D culture (deacylated gellan gum).

With `CCC(=NNC(=O)C(CC)Nc1ccccc1)c1ccc(O)c(C)c1O` (stereo not shown) [k-1:H-7], the results for the “proliferation activity (in words)” value in series [1] and in series [2] were “promoted proliferation activity in human umbilical vein endothelial cells” and “promoted proliferation activity in plural animal cell lines”, respectively. Also, the “number of viable cells (RLU), relative value to control (100%)” value is given as “◯ (one showing a value of not less than 120% as ◯)” in series [3] (5 μM); “⊙” in series [4] (setting [7]); “⊙” in series [4] (setting [8]); “⊙” in series [4] (setting [9]); “⊙” in series [4] (setting [10]).

In the case of `CC/C(=N\NC(=O)CNc1cccc(O)c1)c1ccc(O)c(C)c1O` [k-1:D-1], the “proliferation activity (in words)” value in series [1] was “promoted proliferation activity in human umbilical vein endothelial cells”; in series [6] (three-dimensional cell culture conditions), “promoted proliferation activity of BM-hMSC”; in series [2] it was “promoted proliferation activity in plural animal cell lines”. Moreover, the viability at 1 µM in series [5] (setting [11]) amounted to 95%; in series [5] (setting [12]), 140%; in series [6] (2D), 111%; in series [6] (3D (deacylated gellan gum)) it was 170%; in series [6] (EZSPHERE plate) it was 169%. Further, the viability at 5 µM in series [5] (setting [11]) was 102%; in series [5] (setting [12]), 174%; in series [6] (2D), 125%; in series [6] (3D (deacylated gellan gum)) it was 640%; in series [6] (EZSPHERE plate), 310%; in series [3] (Cricetulus griseus, CHO-K1, 96 h, low attachment U-bottom plate, 5 μM, read-out: number of viable cells (RLU), relative value to control (100%)) it was below 119%. Also, the viability at 10 µM in series [5] (setting [11]) was 98%; in series [5] (setting [12]) it was 168%; in series [6] (2D), 112%; in series [6] (3D (deacylated gellan gum)) it was 771%; in series [6] (EZSPHERE plate) it was 339%; in series [3] (Cricetulus griseus, CHO-K1, 96 h, low attachment U-bottom plate, 10 μM, read-out: number of viable cells (RLU), relative value to control (100%)), below 119%. For the same molecule, the viability at 20 µM in series [5] (setting [11]) turned out to be 83%; in series [5] (setting [12]), 136%; in series [6] (2D) it was 92%; in series [6] (3D (deacylated gellan gum)), 688%; in series [6] (EZSPHERE plate), 275%. For the same molecule, the “cell proliferation promoting effect (in words)” value in series [5] (single layer culture (2D) of SKOV3 cells) is “a favorable cell proliferation promoting effect was not observed”; in series [5] (three-dimensional culture (3D) of SKOV3 cells) it was “exhibited cell proliferation promoting effect at a wide concentration range”. Further, the “number of viable cells (RLU), relative value to control (100%)” value in series [3] (5 μM), in series [3] (10 μM), in series [4] (setting [7]), in series [4] (setting [8]), in series [4] (setting [9]) and in series [4] (setting [10]) was “⊙” in each case.
